Data as given in PMC12455397 (Angewandte Chemie (International Ed. in English), 2025).
Values belong to the molecule of their own block, whether it stands above or below them.

Key:
[1] = test system: NQO1 mRNA in BEAS-2B cells; assay: qPCR-based BEAS-2B cell assay (NQO1 mRNA); design: species or system human; conditions: mean ± SEM, 2-4 independent experiments
Method: RT-qPCR were stimulated with compounds or DMSO diluted in DMEM and incubated for 24 h. DMSO was added accordingly to highest percentage compound volume added.
Upon 24 hour compound stimulation, the cells were trypsinized, washed, spun down and resuspended in 70 μL of ice-cold Pierce RIPA lysis buffer (Thermo Scientific) supplemented with 10 mM NaF, 1× complete protease cocktail inhibitor (Roche), and 5 IU mL-1 benzonase (Sigma), respectively. The protein concentrations were determined using the BCA protein assay kit (Thermo Scientific) and samples was equalized accordingly to the sample of lowest protein concentration. 1×XT sample buffer (Bio-Rad) and 1×XT reducing agent (Bio-Rad) were added to the samples, and lysates were denatured by boiling for 5 min at 95 °C. Denatured samples was separated by SDS-PAGE on a 4–20% Criterion TGX precast gradient gel (Bio-Rad). The gel ran initially for 20 min at 70 V and 45 min at 120 V and was then transferred onto a PVDF membrane (Bio-Rad) using a Trans-Blot Turbo transfer system. […]
Upon 5 hour compound stimulation, RNA was extracted from the cells using the High Pure RNA Isolation Kit (Roche, 11828665001) according to the manufacturer’s instructions. […] The quality and purity of the RNAs were assessed by Nanodrop spectrometry (DeNovix DS-11). Using the TaqMan detection systems, the gene expression of HO-1 (HMOX-1), NQO1, AKR1B10, and TRXR1 was determined by real-time PCR. […] The commercially available TaqMan assay (Thermo Fischer Scientific, cat. no. 4392938) was used, and samples were analyzed in a final volume of 10 μL reaction mix containing 5 μL of master mix, 0.2 μL of RT enzyme, 2.3 μL of nuclease-free water, […] (TATA-Box Binding Protein/TBP; […]
Hs00917067_m1, Thermo Fisher), and 2 μL of pure RNA. The samples were analyzed using a QuantStudioTM 3 real-time PCR instrument with the following program: 1 × (10 min, 48.0 °C; 10 min, 95.0 °C); 40 × (30 s, 95.0 °C; 1 min, 60.0 °C). […]
The upregulation of NQO1 mRNA in BEAS-2B cells was measured by qPCR, as previously described.[20] […]

[2] = test system: Nrf2-regulated genes (AKR1B10, NQO1, TRXR1, HO-1) in HaCaT human keratinocytes; assay: HaCaT cell assay, Western Blotting of Nrf2-regulated proteins; type: cell-based; conditions: 24 h; for protein levels of Nrf2-regulated genes by WB: HaCaT, 10 µM; for relative cell potency among the six compounds (WB): HaCaT, 10, 3, 1 µM
[3] = test system: IFN signalling in macrophage-derived THP-1 cells; assay: Type I IFN signalling after IFNβ stimulation in THP-1 macrophages (WB); type: cell-based; conditions: 100 µM, 24 h; IFNβ 500 U/mL 1 h
THP1 cells = type: cell-based; conditions: THP-1 WT, 10 and 100 µM, 48 h
[4] = test system: cGAS-STING pathway in macrophage-derived THP-1 cells; assay: cGAS-STING pathway in THP-1 macrophages (WB); type: cell-based; conditions: 100 µM, 24 h; cGAMP 4 µg/mL 6 h
[5] = test system: differentiated THP1 macrophages (WT); conditions: for AKR1B10 FC / CASP1 FC / COL1A1 FC / COL4A1 FC / COL4A2 FC / CYP1B1 FC / GPX1 FC / GPX4 FC / IFNAR1 FC / IFNAR2 FC / IFNGR1 FC / IFNGR2 FC / IL1B FC / IRF3 FC / LAMB1 FC / LAMB4 FC / MMP8 FC / MMP9 FC / MMP12 FC / NLRP3 FC / NOD2 FC / NOXA1 FC / SOCS1 FC / SOCS3 FC / SOD1 FC / SOD2 FC / STAT1 FC / TBK1 FC / TLR4 FC / TNFRSF1B FC / TRAP1 FC / cGAS FC: Table S3, THP-1, 12 h; for NQO1 upregulation at 24 h: 10 µM (footnote * of Figure 7c)
[6] = test system: Nrf2 KO THP1 cells differentiated into macrophages; assay: RNA sequencing transcriptome analysis, Nrf2 KO THP-1 macrophages; type: cell-based; conditions: 12 h, CDDO-Me 0.1 µM, DMF, 24, 28 10 µM, KI-696 1 µM
[7] = test system: NLRP3 inflammasome in macrophage-derived THP-1 cells; assay: NLRP3 inflammasome / TLR4 activation in THP-1 macrophages (WB, ELISA); type: cell-based; conditions: 100 µM, 24 h; for IL-1β release (ELISA) following NLRP3 activation: LPS 100 ng/mL 3 h + nigericin 10 µM 1 h; for IL-1β release (ELISA) following high concentrations of LPS: LPS 2 µg/mL 6 h; for expression of NLRP3 (WB) / total protein levels of pro-IL-1β (WB): LPS or LPS+nigericin stimulation
human Keap1 Kelch = human Keap1 Kelch (Homo sapiens, UniProt Q14145); assay: Fluorescence polarization (FP) competition assay with Cy5-Nrf2 peptide probe; conditions: for Ki: ≥3 individual measurements; for ligand efficiency (LE): from FP Ki
[8] = test system: Nrf2-regulated genes (AKR1B10, NQO1, TRXR1, HO-1) in HaCaT human keratinocytes; assay: HaCaT cell assay, RT-qPCR of Nrf2-regulated genes; type: cell-based; conditions: WT HaCaT, 3, 1 and 0.33 µM, 5 h, normalized to TBP
[9] = WT, 12 h, CDDO-Me 0.1 µM, SFN, DMF, 24, 28 10 µM, KI-696 1 µM
[10] = WT, 12 h, CDDO-Me 0.1 µM, SFN, DMF, 24, 28 10 µM, KI-696 1 µM, NS = not significant
[11] = Ki (FP), mean, text and figures

Chain of human Keap1 Kelch (Q14145 321-609): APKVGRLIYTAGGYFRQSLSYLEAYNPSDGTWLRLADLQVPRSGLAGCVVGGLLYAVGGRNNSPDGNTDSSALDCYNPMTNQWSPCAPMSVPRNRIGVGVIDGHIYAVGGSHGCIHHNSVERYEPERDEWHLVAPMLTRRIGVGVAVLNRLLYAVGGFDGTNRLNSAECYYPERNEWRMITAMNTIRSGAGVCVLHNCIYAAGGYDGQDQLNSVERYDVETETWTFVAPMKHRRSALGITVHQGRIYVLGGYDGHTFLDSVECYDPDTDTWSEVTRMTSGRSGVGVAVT

CYP1B1 FC [5]: 1,14 fold
Ki (human Keap1 Kelch; FP (Ki/nM), Table S2, mean ± SEM, NA: not active (measured up to 4 mM)): 10.1 ± 1.4 nM
Ki (human Keap1 Kelch; [11]): 10 nM
fold difference in affinity (FP) between the enantiomers of 24 (human Keap1 Kelch; Peak 1 vs Peak 2 after chiral HPLC separation): 14 fold
ligand efficiency (LE) (human Keap1 Kelch): 0.30
SMILES: Cc1cc2c(cc1C(CC(=O)O)c1ccc3ccc(OCC(=O)NC4CCCCCC4)cc3c1)OCO2 (centres unmarked) [Compound 24]
EC50 ([1]; Homo sapiens, BEAS-2B): 110 nM
protein levels of Nrf2-regulated genes by WB [2]: strong bands in WB for all tested proteins
relative cell potency among the six compounds (WB) [2]: most potent
IFN signalling (phosphorylated STAT1, IFIT1 protein levels) (WB) [3]: did not affect IFN signalling
cell viability (THP1 cells): did not reduce cell viability
ISG15 levels (WB) [4]: reduced levels
total STING levels and STING activation (phosphorylated STING and TBK1) (WB) [4]: reduced total STING levels and STING activation
AKR1B10 FC [5]: 6,62 fold
CASP1 FC [5]: 0,65 fold
COL1A1 FC [5]: 1,40 fold
COL4A1 FC [5]: 1,16 fold
COL4A2 FC [5]: 1,10 fold
GPX1 FC [5]: 0,60 fold
GPX4 FC [5]: 1,13 fold
IFNAR1 FC [5]: 0,93 fold
IFNAR2 FC [5]: 1,00 fold
IFNGR1 FC [5]: 0,63 fold
IFNGR2 FC [5]: 0,73 fold
IL1B FC [5]: 0,85 fold
IRF3 FC [5]: 0,96 fold
LAMB1 FC [5]: 5,65 fold
LAMB4 FC [5]: 4,43 fold
MMP8 FC [5]: 0,79 fold
MMP9 FC [5]: 0,91 fold
MMP12 FC [5]: 0,51 fold
NLRP3 FC [5]: 0,79 fold
NOD2 FC [5]: 0,35 fold
NOXA1 FC [5]: 0,41 fold
SOCS1 FC [5]: 2,11 fold
SOCS3 FC [5]: 2,26 fold
SOD1 FC [5]: 0,41 fold
SOD2 FC [5]: 0,59 fold
STAT1 FC [5]: 0,82 fold
TBK1 FC [5]: 0,86 fold
TLR4 FC [5]: 1,17 fold
TNFRSF1B FC [5]: 1,08 fold
TRAP1 FC [5]: 0,82 fold
cGAS FC [5]: 1,36 fold
KEGG pathway analysis of upregulated genes ([5]; WT, 10 µM, 12 h): activated other important gene clusters involved in cytokine receptor interaction and activation of immune cells
Average FC of upregulated Nrf2-dependent genes [5, 9]: 2.7 fold
GCLM fold change vs vehicle [5, 10]: 3.0 fold
HMOX1 fold change vs vehicle [5, 10]: 2.2 fold
SRXN1 fold change vs vehicle [5, 10]: 2.5 fold
TXNRD1 fold change vs vehicle [5, 10]: 2.9 fold
NQO1 upregulation at 24 h ([5]; WT): 1.5 fold
number of up- or downregulated genes in Nrf2 KO cells [6]: 347 genes
NLRP3 inflammasome activation: release of cleaved caspase-1 and cleaved IL-1β in supernatants (WB) [7]: markedly decreased NLRP3 inflammasome activation
cleavage of gasdermin D (GSDMD) (WB) [7]: prevented the cleavage of gasdermin D
IL-1β release (ELISA) following NLRP3 activation [7]: confirmed a decrease
IL-1β release (ELISA) following high concentrations of LPS [7]: no statistical difference was observed
expression of NLRP3 (WB) [7]: markedly reduced
total protein levels of pro-IL-1β (WB) [7]: also reduced
target gene mRNA expression (RT-qPCR) [8]: several‐fold increases in target gene mRNA expression

CYP1B1 FC [5]: 1,04 fold
Ki (human Keap1 Kelch; [11]): 8.8 nM
ligand efficiency (LE) (human Keap1 Kelch): 0.29
SMILES: Cc1cc2c(cc1C(CC(=O)O)c1ccc3ccc(OCC(=O)NC4CCCCCC4)cc3c1)OCCO2 (centres unmarked) [Compound 28]
EC50 ([1]; Homo sapiens, BEAS-2B): 60.1 ± 5.7 nM
EC50 [1]: 60 nM
protein levels of Nrf2-regulated genes by WB [2]: strong bands in WB for all tested proteins
relative cell potency among the six compounds (WB) [2]: most potent
IFN signalling (phosphorylated STAT1, IFIT1 protein levels) (WB) [3]: did not affect IFN signalling
cell viability (THP1 cells): did not reduce cell viability
ISG15 levels (WB) [4]: reduced levels
total STING levels and STING activation (phosphorylated STING and TBK1) (WB) [4]: reduced total STING levels and STING activation
AKR1B10 FC [5]: 4,27 fold
CASP1 FC [5]: 0,59 fold
COL1A1 FC [5]: 1,40 fold
COL4A1 FC [5]: 1,15 fold
COL4A2 FC [5]: 1,11 fold
GPX1 FC [5]: 0,62 fold
GPX4 FC [5]: 1,20 fold
IFNAR1 FC [5]: 0,92 fold
IFNAR2 FC [5]: 0,99 fold
IFNGR1 FC [5]: 0,64 fold
IFNGR2 FC [5]: 0,76 fold
IL1B FC [5]: 0,88 fold
IRF3 FC [5]: 1,03 fold
LAMB1 FC [5]: 4,94 fold
LAMB4 FC [5]: 3,01 fold
MMP8 FC [5]: 0,94 fold
MMP9 FC [5]: 1,03 fold
MMP12 FC [5]: 0,53 fold
NLRP3 FC [5]: 0,79 fold
NOD2 FC [5]: 0,38 fold
NOXA1 FC [5]: 0,50 fold
SOCS1 FC [5]: 1,95 fold
SOCS3 FC [5]: 2,13 fold
SOD1 FC [5]: 1,35 fold
SOD2 FC [5]: 0,68 fold
STAT1 FC [5]: 0,77 fold
TBK1 FC [5]: 1,01 fold
TLR4 FC [5]: 1,04 fold
TNFRSF1B FC [5]: 1,14 fold
TRAP1 FC [5]: 0,86 fold
cGAS FC [5]: 1,29 fold
Average FC of upregulated Nrf2-dependent genes [5, 9]: 2.5 fold
number of upregulated genes (FC >2.0, p-adj <0.05) [5, 9]: 175 genes
GCLM fold change vs vehicle [5, 10]: 3.0 fold
GSR fold change vs vehicle [5, 10]: 2.0 fold
HMOX1 fold change vs vehicle [5, 10]: 2.4 fold
SRXN1 fold change vs vehicle [5, 10]: 2.4 fold
TXNRD1 fold change vs vehicle [5, 10]: 2.9 fold
NQO1 upregulation at 24 h ([5]; WT): 1.5 fold
number of up- or downregulated genes in Nrf2 KO cells [6]: 266 genes
NLRP3 inflammasome activation: release of cleaved caspase-1 and cleaved IL-1β in supernatants (WB) [7]: markedly decreased NLRP3 inflammasome activation
cleavage of gasdermin D (GSDMD) (WB) [7]: prevented the cleavage of gasdermin D
IL-1β release (ELISA) following NLRP3 activation [7]: confirmed a decrease
IL-1β release (ELISA) following high concentrations of LPS [7]: no statistical difference was observed
expression of NLRP3 (WB) [7]: markedly reduced
total protein levels of pro-IL-1β (WB) [7]: also reduced
target gene mRNA expression (RT-qPCR) [8]: several‐fold increases in target gene mRNA expression
